Patent US9796711B2, “Substituted pyrazolo[3,4-b]pyridin-6-carboxylic acids and method of use” (AbbVie S.àr.l., priority 2015, dated 2017)

Experiments:
ΔF508-CFTR [1] = target: T1, ΔF508-CFTR (Homo sapiens, UniProt P13569, DEL508-508); experiment: CFTR cell surface levels using HRP-tagged ΔF508-CFTR expressing CFBE cells, in the presence of a co-corrector; assay type: cell-based
T1 construct: host or cells: CFBE41o-, doxycycline-inducible
Summary of the method: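 Cells were seeded with 0.5 μg/mL doxycycline and held 68 h at 37 °C. Test compounds plus 3 μM co-corrector (final 0.1% DMSO) were then added for 20 h at 33 °C. Washed cells received HRP substrate, and luminescence was normalized between DMSO and 3 μM co-corrector controls.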

ΔF508-CFTR [2] = target: T1, ΔF508-CFTR; experiment: CFTR cell surface levels using HRP-tagged ΔF508-CFTR expressing CFBE cells, intrinsic corrector capacity; assay type: cell-based
Summary of the method: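 Here the cells express ΔF508-CFTR with horseradish peroxidase inserted in extracellular loop 4, so only rescued channel at the surface gives luminescent signal. Compounds act on their own, 20 h at the reduced temperature of 33 °C; values are percent activity relative to DMSO and a 3 μM corrector.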

[3] = HRP-tagged ΔF508-CFTR expressing CFBE cells, in the presence of 3 μM co-corrector
[4] = HRP-tagged ΔF508-CFTR expressing CFBE cells, in the presence of 3 μM co-corrector, read-out: EC50
[5] = HRP-tagged ΔF508-CFTR expressing CFBE cells, intrinsic corrector capacity (no co-corrector), 33° C., 20 hours
[6] = HRP-tagged ΔF508-CFTR expressing CFBE cells, intrinsic corrector capacity (no co-corrector), 33° C., 20 hours, read-out: EC50
[7] = HRP-tagged ΔF508-CFTR CFBE41o- cells, compounds alone (intrinsic corrector capacity), 20 hours at 33° C., positive control 3 μM corrector
[8] = HRP-tagged ΔF508-CFTR CFBE41o- cells, compounds alone (intrinsic corrector capacity), 20 hours at 33° C., read-out: EC50

T1 sequence (P13569 with tags, fused parts or gaps DEL508-508): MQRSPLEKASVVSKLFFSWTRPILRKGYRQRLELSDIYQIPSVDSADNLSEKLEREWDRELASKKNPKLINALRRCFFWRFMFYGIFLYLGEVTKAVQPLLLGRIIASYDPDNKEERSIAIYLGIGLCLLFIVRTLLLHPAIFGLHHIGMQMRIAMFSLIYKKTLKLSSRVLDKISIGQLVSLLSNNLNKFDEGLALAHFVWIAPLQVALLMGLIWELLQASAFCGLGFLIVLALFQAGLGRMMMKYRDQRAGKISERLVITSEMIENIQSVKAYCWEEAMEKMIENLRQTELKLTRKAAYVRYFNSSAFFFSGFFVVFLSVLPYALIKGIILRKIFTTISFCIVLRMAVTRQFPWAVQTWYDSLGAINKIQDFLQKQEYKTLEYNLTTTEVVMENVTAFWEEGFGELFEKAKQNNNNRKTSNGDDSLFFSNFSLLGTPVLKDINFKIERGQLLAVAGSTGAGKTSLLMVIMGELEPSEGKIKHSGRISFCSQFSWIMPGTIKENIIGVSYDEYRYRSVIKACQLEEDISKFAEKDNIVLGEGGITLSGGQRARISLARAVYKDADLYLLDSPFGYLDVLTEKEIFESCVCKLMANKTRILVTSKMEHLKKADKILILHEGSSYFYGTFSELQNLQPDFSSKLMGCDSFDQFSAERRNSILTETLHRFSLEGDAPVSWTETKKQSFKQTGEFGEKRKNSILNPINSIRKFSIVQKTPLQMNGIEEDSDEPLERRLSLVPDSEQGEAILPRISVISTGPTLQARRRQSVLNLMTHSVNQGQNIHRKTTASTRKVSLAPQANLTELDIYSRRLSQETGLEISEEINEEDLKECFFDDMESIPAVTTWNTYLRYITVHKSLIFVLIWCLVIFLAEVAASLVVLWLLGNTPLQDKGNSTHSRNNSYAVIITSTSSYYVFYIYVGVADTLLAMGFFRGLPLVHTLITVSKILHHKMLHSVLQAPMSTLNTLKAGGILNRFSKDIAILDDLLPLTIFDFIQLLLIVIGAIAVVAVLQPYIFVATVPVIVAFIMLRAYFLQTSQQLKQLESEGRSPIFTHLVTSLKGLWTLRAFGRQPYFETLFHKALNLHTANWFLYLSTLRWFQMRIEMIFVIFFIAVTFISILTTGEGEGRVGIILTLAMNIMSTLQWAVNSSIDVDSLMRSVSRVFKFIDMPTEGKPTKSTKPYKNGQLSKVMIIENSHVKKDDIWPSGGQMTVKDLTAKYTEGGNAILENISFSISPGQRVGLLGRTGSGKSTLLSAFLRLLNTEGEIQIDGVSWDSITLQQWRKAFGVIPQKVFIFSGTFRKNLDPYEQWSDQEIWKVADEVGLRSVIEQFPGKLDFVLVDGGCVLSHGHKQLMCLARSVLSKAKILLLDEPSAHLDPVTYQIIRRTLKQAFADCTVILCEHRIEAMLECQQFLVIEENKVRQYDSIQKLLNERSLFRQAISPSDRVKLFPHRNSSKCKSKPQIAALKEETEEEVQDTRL

Structure (SMILES) | % Activation (ΔF508-CFTR [1]; [3]) | EC50 (ΔF508-CFTR [1]; [4]) | % Activation (ΔF508-CFTR [2]; [5]) | EC50 (ΔF508-CFTR [2]; [6]) | % Activation (ΔF508-CFTR [2]; [7]) | EC50 (ΔF508-CFTR [2]; [8]) | EC50 (ΔF508-CFTR [1]) | EC50 (ΔF508-CFTR [2])
O=C(O)c1cc(N2CC(F)(F)C[C@H]2CO)c2c(C3CCC3)nn(-c3ccccc3)c2n1 [compound 538, 3-cyclobutyl-4-[(2S)-4,4-difluoro-2-(hydroxymethyl)pyrrolidin-1-yl]-1-phenyl-1H-pyrazolo[3,4-b]pyridine-6-carboxylic acid] | 312.05% | 1540 nM | 124.6% | 2430 nM |  |  |  | 
CC(C)c1nn(-c2ccc(F)cc2F)c2nc(C(=O)O)cc(-c3ccc(N4CCC(C#N)CC4)nc3)c12 [compound 326, 4-[6-(4-cyanopiperidin-1-yl)pyridin-3-yl]-1-(2,4-difluorophenyl)-3-(propan-2-yl)-1H-pyrazolo[3,4-b]pyridine-6-carboxylic acid] | 360.83% | 574 nM |  |  | 180.53% | 977 nM |  | 
CC(C)c1nn(-c2cccc(N(C)C)c2)c2nc(C(=O)O)cc(-c3ccc(N(C)C4CCOCC4)cc3)c12 [compound 207, 1-[3-(dimethylamino)phenyl]-4-{4-[methyl(oxan-4-yl)amino]phenyl}-3-(propan-2-yl)-1H-pyrazolo[3,4-b]pyridine-6-carboxylic acid] | 674.35% | 380 nM |  |  | 384.15% | 581 nM |  | 
CN(CCCN(C)C1CCCCC1)c1cc(C(=O)O)nc2c1c(C1CCC1)nn2-c1ccccc1 [compound 690, 3-cyclobutyl-4-[{3-[cyclohexyl(methyl)amino]propyl}(methyl)amino]-1-phenyl-1H-pyrazolo[3,4-b]pyridine-6-carboxylic acid] | 318.25% | 2760 nM | 136.1% | 1670 nM |  |  |  | 
CC(C)c1nn(-c2cccc(N3CCCC3)c2)c2nc(C(=O)O)cc(-c3ccc(N4CCOCC4)cc3)c12 [compound 157, 4-[4-(morpholin-4-yl)phenyl]-3-(propan-2-yl)-1-[3-(pyrrolidin-1-yl)phenyl]-1H-pyrazolo[3,4-b]pyridine-6-carboxylic acid] | 621% | 485 nM |  |  | 388.2% | 459 nM |  | 
O=C(O)c1cc(N2CCOC(CO)C2)c2c(C3CCC3)nn(-c3ccccc3)c2n1 (stereo not drawn) [compound 531, 3-cyclobutyl-4-[2-(hydroxymethyl)morpholin-4-yl]-1-phenyl-1H-pyrazolo[3,4-b]pyridine-6-carboxylic acid] | 223.4% | 1450 nM | 91.66% | 3330 nM |  |  |  | 
CC(C)c1nn(C2CCCOC2)c2nc(C(=O)O)cc(-c3ccc(N4CCC(C#N)CC4)nc3)c12 (stereo not drawn) [compound 365, 4-[6-(4-cyanopiperidin-1-yl)pyridin-3-yl]-1-(oxan-3-yl)-3-(propan-2-yl)-1H-pyrazolo[3,4-b]pyridine-6-carboxylic acid] | 278.05% | 1540 nM |  |  | 147.55% | 2550 nM |  | 
CC(C)c1nn(-c2cc(Cl)ccn2)c2nc(C(=O)O)cc(-c3ccc(N4CCOCC4)cc3)c12 [compound 229, 1-(4-chloropyridin-2-yl)-4-[4-(morpholin-4-yl)phenyl]-3-(propan-2-yl)-1H-pyrazolo[3,4-b]pyridine-6-carboxylic acid] | 298% | 1560 nM |  |  | 130.65% | 2150 nM |  | 
CC(C)c1nn(-c2ccc(F)cc2)c2nc(C(=O)O)cc(N3CCC4(CCO4)CC3)c12 [compound 398, 1-(4-fluorophenyl)-4-(1-oxa-7-azaspiro[3.5]nonan-7-yl)-3-(propan-2-yl)-1H-pyrazolo[3,4-b]pyridine-6-carboxylic acid] | 275.7% | 737 nM | 96.49% | 1290 nM |  |  |  | 
Cc1nn(-c2ccccc2)c2nc(C(=O)O)cc(-c3ccc(N4CCOCC4)c(Br)c3)c12 [compound 66, 4-[3-bromo-4-(morpholin-4-yl)phenyl]-3-methyl-1-phenyl-1H-pyrazolo[3,4-b]pyridine-6-carboxylic acid] | 131.3% | > 10000 nM |  |  | 13.06% | > 10000 nM |  | 
CC(C)c1nn(-c2ccc(F)cc2F)c2nc(C(=O)O)cc(-c3ccc(N4CCC(C#N)CC4)cc3)c12 [compound 327, 4-[4-(4-cyanopiperidin-1-yl)phenyl]-1-(2,4-difluorophenyl)-3-(propan-2-yl)-1H-pyrazolo[3,4-b]pyridine-6-carboxylic acid] | 335.63% | 241 nM |  |  | 176% | 369 nM |  | 
Cc1nn(-c2ccccc2)c2nc(C(=O)O)cc(N3CCC4(CCCO4)C3)c12 (stereo not drawn) [compound 311, 3-methyl-4-(1-oxa-7-azaspiro[4.4]nonan-7-yl)-1-phenyl-1H-pyrazolo[3,4-b]pyridine-6-carboxylic acid] | 195.5% | 2140 nM |  |  | 53.7% | 2510 nM |  | 
COCC1CCN(c2cc(C(=O)O)nc3c2c(C(C)C)nn3C2CCCCC2)CC1 [compound 431, 1-cyclohexyl-4-[4-(methoxymethyl)piperidin-1-yl]-3-(propan-2-yl)-1H-pyrazolo[3,4-b]pyridine-6-carboxylic acid] | 416.6% | 425 nM | 198.57% | 543 nM |  |  |  | 
O=C(O)c1cc(N2CC(OCC(F)F)C2)c2c(C3CCC3)nn(-c3ccccc3)c2n1 [compound 513, 3-cyclobutyl-4-[3-(2,2-difluoroethoxy)azetidin-1-yl]-1-phenyl-1H-pyrazolo[3,4-b]pyridine-6-carboxylic acid] | 349.6% | 472 nM | 141.7% | 371 nM |  |  |  | 
CC(C)(C)OC(=O)N1CCC(Oc2nn(-c3ccccc3)c3nc(C(=O)O)cc(-c4ccc(N5CCC(C#N)CC5)nc4)c23)CC1 [compound 553, 3-{[1-(tert-butoxycarbonyl)piperidin-4-yl]oxy}-4-[6-(4-cyanopiperidin-1-yl)pyridin-3-yl]-1-phenyl-1H-pyrazolo[3,4-b]pyridine-6-carboxylic acid] | 419.05% | 119 nM | 189.7% | 370 nM |  |  |  | 
COCC(C)N1CCN(c2cc(C(=O)O)nc3c2c(C(C)C)nn3-c2ccc(F)cc2)CC1 (stereo not drawn) [compound 793, 1-(4-fluorophenyl)-4-[4-(1-methoxypropan-2-yl)piperazin-1-yl]-3-(propan-2-yl)-1H-pyrazolo[3,4-b]pyridine-6-carboxylic acid] | 363.5% | 1670 nM | 157.7% | 1670 nM |  |  |  | 
Cc1cccc(-n2nc(C(C)C)c3c(-c4ccc(N5CCC(C#N)CC5)nc4)cc(C(=O)O)nc32)c1 [compound 175, 4-[6-(4-cyanopiperidin-1-yl)pyridin-3-yl]-1-(3-methylphenyl)-3-(propan-2-yl)-1H-pyrazolo[3,4-b]pyridine-6-carboxylic acid] | 522.6% | 532 nM |  |  | 321.67% | 809 nM |  | 
CC(C)(C)OC(=O)NC[C@@H]1CCN(c2cc(C(=O)O)nc3c2c(C2CCC2)nn3-c2ccccc2)C1 [compound 671, 4-[(3S)-3-{[(tert-butoxycarbonyl)amino]methyl}pyrrolidin-1-yl]-3-cyclobutyl-1-phenyl-1H-pyrazolo[3,4-b]pyridine-6-carboxylic acid] | 357.4% |  | 190.1% |  |  |  | 943 nM | 1610 nM
